# Laboratory results as given in article PMC11793105, “A kalihinol analog disrupts apicoplast function and vesicular trafficking in P. falciparum malaria” (Science (New York, N.Y.), 2024).
# Several values for one entry are separate records, joined by “and”; a condition that tells them apart may be missing. Equal entries are not always repeated. Where two headings read alike, the source gives them in different places.
# Tests used:
# hTERT = assay: Human cell line activity, hTERT; assay type: cell-based; settings: read-out: IC50 (µM) hTERT
# [1] = Pharmacokinetic profile at 25 and 50 mg/Kg (Table S9b); assay type: in vivo, Male CD1 mouse; settings: for Cmax: oral, blood; for AUC(0-inf): read-out: AUCINF_obs
# Protocol: An Acquity ultra-performance liquid chromatography (UPLC) system (Waters Corp., Milford, MA, USA) couple to a triple quadrupole mass spectrometer (API 4000, AB Sciex, Foster City, CA, USA) was used for the analysis ([99]).
# Blood concentration time data were analyzed by Non-Compartmental PK analysis using Phoenix WinNonlin software (Certara, NY, US) to calculate PK parameters. […]
# were housed in cages (Tecniplast®). The cages contained autoclaved dust free corncob bedding […]
# provided ad libitum. Environmental conditions: Photoperiods, simulated dawn/dusk facility, were […]
# The temperature range was 22± 2 °C. […]
# route, once a day, 10ml/kg). […]
# Two mice were treated at 50
# To confirm the data, 3 animals per dose
# (hematology, clinical chemistry, and necropsy). Additionally in the same animals with the same […]
# determination of blood level exposures and pharmacokinetic analysis. […]
# Peripheral blood […]
# samples (15 µL) were taken at frequent intervals, mixed with 30 µL of H2O milli Q and immediately frozen on dry ice. The frozen samples were stored at −80 °C until analysis. Vehicle-treated mice experienced the same blood-sampling regimen (table S9, S10).
# Bioanalysis and pharmacokinetics analysis: LC-MS
# Bioanalysis of in vivo samples: Sample pretreatment Before the analysis 15ul of blood samples were defrost at ambient temperature and mixture with 200ul of ACN:MeOH (80:20). After protein precipitation samples were filtered by 0.45um filter plate (Multiscreen Solvinert 0.45um FTPE, Millipore). The 2ul TFA (Trifluoroacetic acid, sigmaAldrich) were added to each filtered sample in order to derivatize the compound to formamide analogue. This process occurs spontaneously.
# LC-MS analysis An Acquity Ultra-Performance liquid chromatography (UPLC) system (Waters Corp., Milford, MA, USA) couple to a triple quadrupole mass spectrometer (API 4000™, AB Sciex, Foster City, CA, USA) was used for the analysis. The MS/MS transition was 311.340 / […]
# The chromatographic separation was carried out at 0.4ml/min in a Acquity UPLC™ BEH C18 column (50x2.1 mm i.d., […]; Waters Corp.) at 40 °C with Acetonitrile (sigmaAldrich) and 0.1% formic acid as eluents.
# Pharmacokinetic analysis Blood concentration time data were analyzed by Non-Compartmental PK analysis using Phoenix WinNonlin software (Certara NY, US) to calculate PK parameters. The maximum observed concentration (Cmax) and the time to reach it (Tmax), were determined. The area under concentration-time curve from dosing at time zero to the last measured concentration […]
# time (AUClast) and the total area under concentration-time curve from time zero extrapolated to infinity (AUCinf), were calculated using a linear trapezoidal rule. […]
# [2] = male, CD1, mouse, whole blood, po, 25 mg/kg, Mean
# [3] = male, CD1, mouse, whole blood, po, 50 mg/kg, Mean
# [4] = male, CD1, mouse, whole blood, po, 50 mg/kg, individual mice
compound,measurement,setting,value
[C-]#[N+][C@]1(C)CC[C@H]2[C@@H]([C@@H](C(C)C)CC[C@]2(C)[N+]#[C-])[C@H]1O [MED6-189],IC50,hTERT,26 µM
same,AUCINF_D_obs,"[1]; 25 mg/Kg, Mean",1505 kg·ng·h/mL/mg
same,AUC_%Extrap_obs,"[1]; 25 mg/Kg, Mean",0.955%
same,AUClast_D,"[1]; 25 mg/Kg, Mean",1491.7 kg·ng·h/mL/mg
same,Cmax_D,"[1]; 25 mg/Kg, Mean",188.6 kg·ng/mL/mg
same,HL_Lambda_z,"[1]; 25 mg/Kg, Mean",3.711 h
same,AUCINF_D_obs,"[1]; 25 mg/Kg, individual mice",2105.77 kg·ng·h/mL/mg and 904.22 kg·ng·h/mL/mg
same,AUCINF_obs,"[1]; 25 mg/Kg, individual mice",52644.4 ng·h/mL and 22605.6 ng·h/mL
same,AUC_%Extrap_obs,"[1]; 25 mg/Kg, individual mice",0.78% and 1.13%
same,AUClast,"[1]; 25 mg/Kg, individual mice",52232.7 ng·h/mL and 22350.5 ng·h/mL
same,AUClast_D,"[1]; 25 mg/Kg, individual mice",2089.31 kg·ng·h/mL/mg and 894.02 kg·ng·h/mL/mg
same,Cmax_D,"[1]; 25 mg/Kg, individual mice",232.4 kg·ng/mL/mg and 144.8 kg·ng/mL/mg
same,HL_Lambda_z,"[1]; 25 mg/Kg, individual mice",3.31 h and 4.11 h
same,Cmax,"[1]; 25 mg/Kg, individual mice 1 and 2",3620 ng/mL
same,AUCINF_D_obs,"[1]; 50 mg/Kg, Mean",2099.8 kg·ng·h/mL/mg
same,AUC_%Extrap_obs,"[1]; 50 mg/Kg, Mean",4.415%
same,AUClast_D,"[1]; 50 mg/Kg, Mean",2014.32 kg·ng·h/mL/mg
same,Cmax_D,"[1]; 50 mg/Kg, Mean",158.4 kg·ng/mL/mg
same,HL_Lambda_z,"[1]; 50 mg/Kg, Mean",4.536 h
same,AUCINF_D_obs,"[1]; 50 mg/Kg, individual mice",1882 kg·ng·h/mL/mg and 2317.54 kg·ng·h/mL/mg
same,AUCINF_obs,"[1]; 50 mg/Kg, individual mice",115877 ng·h/mL
same,AUC_%Extrap_obs,"[1]; 50 mg/Kg, individual mice",7.74% and 1.09%
same,AUClast,"[1]; 50 mg/Kg, individual mice",114617 ng·h/mL
same,AUClast_D,"[1]; 50 mg/Kg, individual mice",1736.3 kg·ng·h/mL/mg and 2292.34 kg·ng·h/mL/mg
same,Cmax_D,"[1]; 50 mg/Kg, individual mice",137.2 kg·ng/mL/mg and 179.6 kg·ng/mL/mg
same,HL_Lambda_z,"[1]; 50 mg/Kg, individual mice",5.74 h and 3.33 h
same,Cmax,"[1]; 50 mg/Kg, individual mice 1 and 2",8980 ng/mL
same,AUC(0-t),[1]; [2],37300 ng·h/mL
same,AUC(0-inf),[1]; [2],37600 ng·h/mL
same,Cmax,"[1]; male, CD1, mouse, whole blood, po, 25 mg/kg, Mean of 2 mice, read-out: Cmax",4720 ng/mL
same,Cmax,"[1]; male, CD1, mouse, whole blood, po, 25 mg/kg, individual mice 1 and 2, read-out: Cmax",5810 ng/mL
same,AUC(0-t),[1]; [3],101000 ng·h/mL
same,AUC(0-inf),[1]; [3],105000 ng·h/mL
same,AUC(0-t),[1]; [4],86800 ng·h/mL
same,AUC(0-inf),[1]; [4],94100 ng·h/mL
same,Cmax,"[1]; male, CD1, mouse, whole blood, po, 50 mg/kg, Mean of 2 mice, read-out: Cmax",7920 ng/mL
same,Cmax,"[1]; male, CD1, mouse, whole blood, po, 50 mg/kg, individual mice 1 and 2, read-out: Cmax",6860 ng/mL
same,Tmax,"[1]; male, CD1, mouse, whole blood, po, 25 mg/Kg, individual mice",4 h
same,Tmax,"[1]; male, CD1, mouse, whole blood, po, 50 mg/Kg, individual mice",7 h
